We go through 16 compounds from ChEMBL document CHEMBL2046276, “Molecular cloning, characterization, and inhibition studies of a β-carbonic anhydrase from Malassezia globosa, a potential antidandruff target” (J Med Chem, 2012).

What is called Ki is a dissociation constant, usually derived from enzyme kinetics or from competition with a known ligand. A higher Ki goes with a looser hold on the target.

The target of assay [1] is T1, Carbonic anhydrase (Candida albicans (strain SC5314 / ATCC MYA-2876) (Yeast), UniProt Q5AJ71).
T1 sequence (Q5AJ71 whole entry): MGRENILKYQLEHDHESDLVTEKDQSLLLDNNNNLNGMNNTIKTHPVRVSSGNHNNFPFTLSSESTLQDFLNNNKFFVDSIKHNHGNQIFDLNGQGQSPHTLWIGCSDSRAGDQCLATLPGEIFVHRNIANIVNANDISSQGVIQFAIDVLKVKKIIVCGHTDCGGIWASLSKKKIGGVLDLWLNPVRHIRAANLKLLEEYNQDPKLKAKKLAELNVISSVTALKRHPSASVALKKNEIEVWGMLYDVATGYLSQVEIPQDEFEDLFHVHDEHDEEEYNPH

The subject of assay [2] is Malassezia pachydermatis. Put plainly: microbe, parasite or virus in culture. The note with it: CBS 6536, 168 h.
Assay [3] concerns Malassezia dermatis. The assay is described as follows: microbe, parasite or virus in culture. The following applies: CBS 9145, 168 h.
Assay [4] is described as follows: microbe, parasite or virus in culture. The following applies: Malassezia globosa, CBS 7966, 168 h.
In assay [5] the test system is Malassezia furfur. The assay is described as follows: microbe, parasite or virus in culture. The note with it: CBS 9569, 168 h.
The subject of assay [6] is Malassezia pachydermatis. The assay is described as follows: Antimicrobial activity against Malassezia pachydermatis infected in CD-1 mouse model of dandruff assessed as improvement in skin appearance at 5% cream administered once daily for 6 days measured daily for 20 days. It counts as functional.
Assay [7] deals with Malassezia pachydermatis. Put plainly: Antimicrobial activity against Malassezia pachydermatis infected in CD-1 mouse model of dandruff assessed as fungal hyphae fragmentation at 5% cream administered once daily for 6 days measured daily for 20 days. It counts as functional.
The subject of assay [8] is Malassezia pachydermatis. Put plainly: Antimicrobial activity against Malassezia pachydermatis infected in CD-1 mouse model of dandruff assessed as fungal hyphae fragmentation at 2% cream administered once daily for 6 days measured daily for 20 days. It counts as functional.
Assay [9] deals with Malassezia pachydermatis. Put plainly: Antimicrobial activity against Malassezia pachydermatis infected in CD-1 mouse model of dandruff assessed as improvement in skin appearance at 2% cream administered once daily for 6 days measured daily for 20 days. It counts as functional.

In brackets after ≈: the same amount, converted by molar mass. Activity calls are given as the source filed them. The rule behind the calls is not given here.

In turn, `NS(=O)(=O)Nc1ccc(Br)cc1` came in with a Ki in assay [1] of 763 nM.
For `NS(=O)(=O)c1ccc(Br)cc1`, the MIC in assay [2], in assay [3], in assay [4] and in [5] was 320 µg/mL (≈ 1360 µM) throughout. For the same compound, the affinity in [1], expressed as Ki, was 894 nM.
`Nc1cc(Cl)c(S(N)(=O)=O)cc1S(N)(=O)=O`: the MIC in assay [2], in [3], in assay [4] and in assay [5] was 640 µg/mL (≈ 2240 µM) each time.
For the compound `NS(=O)(=O)Oc1ccc(Br)cc1`, affinity in assay [1] was put at a Ki of 715 nM.
As to `Nc1ccccc1S(N)(=O)=O`, the MIC in assay [2] is above 640 µg/mL; in [3], 640 µg/mL (≈ 3720 µM); in [4], 640 µg/mL (≈ 3720 µM); in assay [5], 640 µg/mL (≈ 3720 µM).
Regarding `NCCc1ccc(S(N)(=O)=O)cc1`, in assay [6], the Activity came to 67%. The MIC in [2] is 640 µg/mL (≈ 3200 µM); in assay [3], 640 µg/mL (≈ 3200 µM); in [4], 320 µg/mL (≈ 1600 µM); in assay [5], 640 µg/mL (≈ 3200 µM). The outcome in assay [7] was Active.
Regarding `CC(=O)N1CCN(c2ccc(OCC3COC(Cn4ccnc4)(c4ccc(Cl)cc4Cl)O3)cc2)CC1` (configuration not stated), the outcome in [8] and in assay [9] was Active.
As to `Nc1cc(C(F)(F)F)c(S(N)(=O)=O)cc1S(N)(=O)=O` [2,4-DISULFAMYLTRIFLUOROMETHYLANILINE], the MIC in assay [2] was above 640 µg/mL; in assay [3] it was above 640 µg/mL; in assay [4] it was 320 µg/mL (≈ 1000 µM); in assay [5], above 640 µg/mL.
With `NS(=O)(=O)c1ccccc1` [BENZENESULFONAMIDE], the MIC was 160 µg/mL (≈ 1020 µM) in assay [2], above 640 µg/mL in [3], 320 µg/mL (≈ 2040 µM) in assay [4] and 160 µg/mL (≈ 1020 µM) in assay [5]. In assay [1], this compound registered a Ki of 2360 nM.
As to `NS(=O)(=O)c1ccc(C(=O)O)cc1` [CARZENIDE], the MIC is 640 µg/mL (≈ 3180 µM) in assay [2], above 640 µg/mL in [3], 640 µg/mL (≈ 3180 µM) in assay [4] and above 640 µg/mL in [5].
Turning to `NS(=O)(=O)c1cc(Cl)c(Cl)c(S(N)(=O)=O)c1` [DICHLORPHENAMIDE], the MIC in [2] was above 640 µg/mL; in assay [3] it was above 640 µg/mL; in assay [4] it was 320 µg/mL (≈ 1050 µM); in assay [5], above 640 µg/mL.
On to `NCc1ccc(S(N)(=O)=O)cc1` [MAFENIDE], for which the MIC in assay [2] was 160 µg/mL (≈ 859 µM); in [3], 160 µg/mL (≈ 859 µM); in assay [4] it was 160 µg/mL (≈ 859 µM); in assay [5], 320 µg/mL (≈ 1720 µM).
For the compound `Cc1ccc(S(N)(=O)=O)cc1` [P-TOLUENESULFONAMIDE], the MIC in [4] came out at 160 µg/mL (≈ 934 µM); in assay [5], 640 µg/mL (≈ 3740 µM).
Consider `NS(=O)(=O)Oc1ccccc1` [PHENYLSULFAMATE], for which the affinity in assay [1] corresponds to a Ki of 1970 nM.
`NS(=O)(=O)Nc1ccccc1` [PHENYLSULFAMIDE]: the Ki in assay [1] was 1910 nM.
Consider `Nc1ccc(S(N)(=O)=O)cc1` [SULFANILAMIDE], for which the MIC was 10 µg/mL (≈ 58.1 µM) in assay [2], 160 µg/mL (≈ 929 µM) in [3], 80 µg/mL (≈ 465 µM) in assay [4] and 80 µg/mL (≈ 465 µM) in assay [5].
